Earlier results as cited in paper PMC5131319, “Occurrence, temporal trends, and half-lives of perfluoroalkyl acids (PFAAs) in occupational workers in China” (Scientific Reports, 2016).

Conditions: humans; cited from earlier work

O=S(=O)(O)C(F)(F)C(F)(F)C(F)(F)C(F)(F)F [PFBS, perfluorobutanesulfonate]
Half-life based on serum concentrations: 26 days
